Consider 18 compounds from patent publication US11242327B2, “Analgesic compounds” (RECURIUM IP HOLDINGS, LLC, priority 2017, dated 2022).

Holding throughout (assay type): in vivo
In test [1] the test system is male Sprague-Dawley rats. The test is described as follows: UVB Inflammatory Pain Test (thermal hyperalgesia). As to conditions: rat, oral, 30 mg/kg. The protocol: UVB irradiation to the surface of the hind paw was used to induce cutaneous inflammatory pain in non-fasted male Sprague-Dawley rats weighing 175-300 g. On Day −3, animals were restrained and the plantar surface of the left hind paw was exposed to 350 mJoules/cm^2 of UVB irradiation using a narrow band UVB light source (Daavlin®, Bryan, Ohio). Following UVB irradiation, animals were returned to their home cage. Thermal hyperalgesia was assessed prior to dosing and approximately 1, 2, and 4 hours after dosing on Day 0 using a radiant heat plantar test apparatus (IITC Life Sciences©; Woodland Hills, Calif.). Animals were placed in individual acrylic chambers on a glass platform warmed to 30±2° C. and allowed to acclimate to their surroundings for a minimum of 15 minutes before testing. The stimulus was presented to the plantar surface and the timer was activated. The stimulus intensity was set such that pre-injury paw withdrawal latencies were approximately 12-18 seconds. Paw withdrawal latency values were recorded at the first observed nocifensive behavior (paw withdrawal, flinching, biting and/or licking). Three paw withdrawal latencies were measured for each hind paw per time point. The mean of the 3 values was taken as the paw withdrawal latency for that time point. A maximum cutoff latency of 30 seconds was used to prevent injury to the animal. The mean and standard error of the mean (SEM) were determined for each paw for each treatment group at each time point. Test compounds were administered orally at concentrations of 3, 10, 30 or 100 mg/kg; celecoxib was administered orally at a concentration of 30 mg/kg; and acetaminophen was administered orally at a concentration of 300 mg/kg. The control group received the vehicle (sterile water). In Table 4, ‘A’ designates >8 seconds of paw withdrawal latency, ‘B’ designates >6 and <8 seconds of paw withdrawal latency, and ‘C’ designates <6 seconds of paw withdrawal latency.
The results provided in Table 4 are for oral administration in rats. […] Furthermore, while acetaminophen was dosed at 300 mg/kg, compounds of Formulae (Ie), (Ih) and (Ik), or a pharmaceutically acceptable salt of any of the foregoing, were dosed at 3 mg/kg, 10 mg/kg and 100 mg/kg.

Test [2] relates to male Sprague-Dawley rats. Briefly: Osteoarthritis Pain Test (MIA, mechanical hyperalgesia). As to conditions: rat, oral once daily, 30 mg/kg. How it is done:
Osteoarthritis pain was induced in non-fasted male Sprague-Dawley rats weighing 150-250 g by injecting 2 mg of monosodium iodoacetate (MIA) into the left knee joint. Mechanical hyperalgesia was measured using a digital Randall-Selitto device (dRS; IITC Life Sciences©; Woodland Hills, Calif.). Animals were allowed to acclimate to the testing room for a minimum of 15 minutes before testing. Animals were placed in a restraint sling that suspended the animal, leaving the hind limbs available for testing. The stimulus was applied to the knee joint by a blunt tip and pressure was applied gradually over approximately 10 seconds. Joint compression threshold values were recorded at the first observed nocifensive behavior (vocalization, struggle, or withdrawal). One reading per joint was taken at each time point, and a maximum stimulus cutoff of 500 grams was used to prevent injury to the animal. Mechanical hyperalgesia was assessed prior to MIA injection, and again 14 days later. After 14 days, test or control articles were administered once daily for 7 days with mechanical hyperalgesia assessed prior to dosing, 1, 2, and 4 hours post-dosing on days 0, 3, and 6. Test compounds were administered orally at concentrations of 3, 10, 30 or 100 mg/kg and celecoxib was administered orally at a concentration of 30 mg/kg. The control group received the vehicle (sterile water). After day 0, groups receiving the 100 mg/kg dose were reduced to a dose of 3 mg/kg. In Table 5, ‘A’ designates ≥375 grams of joint compression, ‘B’ designates ≥325 and <375 grams of joint compression, and ‘C’ designates <325 grams of joint compression.
The results provided in Table 5 are for oral administration in rats.

Test [3] has as its system male Sprague-Dawley rats. Briefly: Formalin Paw Test, rat, oral. As to conditions: 30 mg/kg; for Early Phase, seconds of paw licking: early/acute phase (0-10 minutes); for Late Phase, seconds of paw licking: late/tonic phase (10-35 minutes). How it is done: One test compound or the vehicle was administered to each rat or mouse in each test group (8 rats or mice per group). Non-fasted male Sprague-Dawley rats weighing 200-225 g or non-fasted male ICR mice weighing 23±3 g were used. […] Responses were measured every 5 minutes after the formalin injection for 35 minutes. The results in Table 2 are for oral administration in rat and the results in Table 3 are for intraperitoneal administration in mouse. In Tables 2 and 3, 'A' designates <70 seconds of paw licking, 'B' designates >70 and <165 seconds of paw licking, and 'C' designates >165 seconds of paw licking.

For `Cc1ccc(-c2cc(C(F)(F)F)nn2-c2ccc(S(N)(=O)=O)cc2)cc1` [Celecoxib, reference compound], in the test on male Sprague-Dawley rats [1] (1 h after dosing), the “paw withdrawal latency, 1 h” value is “A (>8 seconds of paw withdrawal latency)”. Further, the “paw withdrawal latency, 2 h” value in the test on male Sprague-Dawley rats [1] (2 h after dosing) was “A (>8 seconds of paw withdrawal latency)”. Also, the “paw withdrawal latency, 4 h” value with male Sprague-Dawley rats [1] (4 h after dosing) is reported as “A (>8 seconds of paw withdrawal latency)”. Besides, in the test with male Sprague-Dawley rats [2] (Day 0, 1 h post-dosing), the “joint compression threshold, Day 0, 1 h” value was “B (≥325 and <375 grams of joint compression)”. In addition, in the test on male Sprague-Dawley rats [2] (Day 0, 2 h post-dosing), the “joint compression threshold, Day 0, 2 h” value is “A (≥375 grams of joint compression)”. For the same compound, the “joint compression threshold, Day 0, 4 h” value with male Sprague-Dawley rats [2] (Day 0, 4 h post-dosing) was “B (≥325 and <375 grams of joint compression)”. In addition, in the test on male Sprague-Dawley rats [2] (Day 3, 1 h post-dosing), the “joint compression threshold, Day 3, 1 h” value is “C (<325 grams of joint compression)”. Moreover, the “joint compression threshold, Day 3, 2 h” value with male Sprague-Dawley rats [2] (Day 3, 2 h post-dosing) is listed as “A (≥375 grams of joint compression)”. The “joint compression threshold, Day 3, 4 h” value in the test with male Sprague-Dawley rats [2] (Day 3, 4 h post-dosing) was “A (≥375 grams of joint compression)”. Besides, the “joint compression threshold, Day 6, 1 h” value in the test on male Sprague-Dawley rats [2] (Day 6, 1 h post-dosing) is “B (≥325 and <375 grams of joint compression)”. The “joint compression threshold, Day 6, 2 h” value with male Sprague-Dawley rats [2] (Day 6, 2 h post-dosing) was “A (≥375 grams of joint compression)”. In the test on male Sprague-Dawley rats [2] (Day 6, 4 h post-dosing), the “joint compression threshold, Day 6, 4 h” value is “A (≥375 grams of joint compression)”.
Turning to `Cl.NC12CC(c3ccc(C(F)(F)F)cc3)(C1)C2` [Compound 3, 3-(4-(trifluoromethyl)phenyl)bicyclo[1.1.1]pentan-1-amine hydrochloride], in the test with male Sprague-Dawley rats [3], the “Early Phase, seconds of paw licking” value is listed as “A (<70 seconds of paw licking)” and the “Late Phase, seconds of paw licking” value was “A (<70 seconds of paw licking)”.
`COc1ccc(C23CC(N)(C2)C3)cc1.Cl` [Compound 4, 3-(4-Methoxyphenyl)bicyclo[1.1.1]pentan-1-amine hydrochloride]: in the test on male Sprague-Dawley rats [3], the “Early Phase, seconds of paw licking” value was “A (<70 seconds of paw licking)” and the “Late Phase, seconds of paw licking” value is on record as “A (<70 seconds of paw licking)”.
For `Cl.NC12CC(c3cccc(C(F)(F)F)c3)(C1)C2` [Compound 5], in the test on male Sprague-Dawley rats [3], the “Early Phase, seconds of paw licking” value is “A (<70 seconds of paw licking)”; the “Late Phase, seconds of paw licking” value was “B (>70 and <165 seconds of paw licking)”.
As to `CCNC12CC(C(F)(F)F)(C1)C2.Cl` [Compound 8, N-Ethyl-3-(trifluoromethyl)bicyclo[1.1.1]pentan-1-amine hydrochloride], in the test on male Sprague-Dawley rats [3], the “Early Phase, seconds of paw licking” value is on record as “A (<70 seconds of paw licking)” and the “Late Phase, seconds of paw licking” value was “C (>165 seconds of paw licking)”.
Consider `Cl.OCCNC12CC(C(F)(F)F)(C1)C2` [Compound 9, 2-((3-(Trifluoromethyl)bicyclo[1.1.1]pentan-1-yl)amino)ethan-1-ol hydrochloride], for which, in the test with male Sprague-Dawley rats [3], the “Early Phase, seconds of paw licking” value is “A (<70 seconds of paw licking)” and the “Late Phase, seconds of paw licking” value is on record as “C (>165 seconds of paw licking)”.
Taken in the same sequence, the figures for `Cl.NC12CC(c3ccc(Cl)cc3)(C1)C2` [Compound 10, 3-(4-Chlorophenyl)bicyclo[1.1.1]pentan-1-amine hydrochloride] were “A (<70 seconds of paw licking)” and “A (<70 seconds of paw licking)”.
Taken in the same sequence, the figures for `Cl.NC12CC(c3ccnc(C(F)(F)F)n3)(C1)C2` [Compound 11, 3-(2-(Trifluoromethyl)pyrimidin-4-yl)bicyclo[1.1.1]pentan-1-amine hydrochloride] were “A (<70 seconds of paw licking)” and “C (>165 seconds of paw licking)”.
The like results for `Cl.NC12CC(c3nccc(C(F)(F)F)n3)(C1)C2` [Compound 12, 3-(4-(Trifluoromethyl)pyrimidin-2-yl)bicyclo[1.1.1]pentan-1-amine hydrochloride] were, in that order, “A (<70 seconds of paw licking)” and “C (>165 seconds of paw licking)”.
For the compound `Cl.NC12CC(c3nc4cc(C(F)(F)F)ccc4s3)(C1)C2` [Compound 14, 3-(5-(trifluoromethyl)benzo[d]thiazol-2-yl)bicyclo[1.1.1]pentan-1-amine hydrochloride], in the test with male Sprague-Dawley rats [3], the “Early Phase, seconds of paw licking” value is reported as “A (<70 seconds of paw licking)” and the “Late Phase, seconds of paw licking” value is “C (>165 seconds of paw licking)”.
The like results for `Cl.NC12CC(c3nc4cc(C(F)(F)F)ccc4o3)(C1)C2` [Compound 15, 3-(5-(Trifluoromethyl)benzo[d]oxazol-2-yl)bicyclo[1.1.1]pentan-1-amine hydrochloride] were, in that order, “A (<70 seconds of paw licking)” and “C (>165 seconds of paw licking)”.
The like results for `Cl.NC12CC(c3nc4cc(Cl)ccc4o3)(C1)C2` [Compound 16, 3-(5-chlorobenzo[d]oxazol-2-yl)bicyclo[1.1.1]pentan-1-amine hydrochloride] were, in that order, “A (<70 seconds of paw licking)” and “C (>165 seconds of paw licking)”.
Taken in the same sequence, the figures for `Cl.NC12CC(c3nc4cc(F)ccc4[nH]3)(C1)C2` [Compound 17, 3-(5-fluoro-1H-benzo[d]imidazol-2-yl)bicyclo[1.1.1]pentan-1-amine hydrochloride] were “A (<70 seconds of paw licking)” and “C (>165 seconds of paw licking)”.
As to `COc1cccc(C23CC(N)(C2)C3)c1.Cl` [Compound 18, 3-(3-Methoxyphenyl)bicyclo[1.1.1]pentan-1-amine hydrochloride], in the test with male Sprague-Dawley rats [3], the “Early Phase, seconds of paw licking” value was “A (<70 seconds of paw licking)”; the “Late Phase, seconds of paw licking” value is “B (>70 and <165 seconds of paw licking)”.
Turning to `CC(F)(F)C12CC(N)(C1)C2.Cl` [Compound 19, 3-(1,1-Difluoroethyl)bicyclo[1.1.1]pentan-1-amine hydrochloride], in the test with male Sprague-Dawley rats [3], the “Early Phase, seconds of paw licking” value is “A (<70 seconds of paw licking)”; the “Late Phase, seconds of paw licking” value is “B (>70 and <165 seconds of paw licking)”.
In the case of `CC(C)C(F)(F)C12CC(N)(C1)C2.Cl` [Compound 20, 3-(1,1-Difluoro-2-methylpropyl)bicyclo[1.1.1]pentan-1-amine hydrochloride], in the test with male Sprague-Dawley rats [3], the “Early Phase, seconds of paw licking” value is given as “A (<70 seconds of paw licking)” and the “Late Phase, seconds of paw licking” value was “C (>165 seconds of paw licking)”.
Take `CC(C)=C(F)C12CC(N)(C1)C2.Cl` [Compound 21, 3-(1-fluoro-2-methylprop-1-en-1-yl)bicyclo[1.1.1]pentan-1-amine hydrochloride]: in the test on male Sprague-Dawley rats [3], the “Early Phase, seconds of paw licking” value is listed as “A (<70 seconds of paw licking)” and the “Late Phase, seconds of paw licking” value is listed as “C (>165 seconds of paw licking)”.
Regarding `Cl.NC12CC(c3ccccc3)(C1)C2` [Compound 22, 3-Phenylbicyclo[1.1.1]pentan-1-amine hydrochloride], in the test with male Sprague-Dawley rats [3], the “Early Phase, seconds of paw licking” value is on record as “A (<70 seconds of paw licking)”; the “Late Phase, seconds of paw licking” value was “B (>70 and <165 seconds of paw licking)”.
